Results on two molecules are retold here after patent US20260294893A1, “NOVEL RAS INHIBITORS” (KHR Biotec GmbH, priority 2022, published 2026).

In one data set the target is T1, NRAS G12V (Homo sapiens, UniProt P01111, G12V).
T1 construct: CRAF RBD (1-149) fused to SmBiT; transfected cells (HeLa S3 likely), NanoBiT
Kind of data set: NanoBit assay for RAS activation (LgBiT-NRAS G12V / SmBiT-CRAF RBD). The data set is classed as cell-based. As to conditions: 2 h with inhibitor, serum free DMEM. On the procedure:
(§1) FIGS. 1a), 1b) and 1c): NanoBit assay for RAS activation (KRAS G12V, NRAS G12V, HRAS G12V)
(§2) N-terminal LgBiT and C-terminal SmBiT construct was purchased from Promega and K, N and HRAS G12V (full length) was cloned with Xho I and Bgl II to LgBit and CRAF Ras binding domain (1-149) was cloned with EcoRI and Bgl II to SmBit. For transfections, 1 μg or 2 μg of (12 well/6 well) plasmids were transfected into cells with 0.5 mM of PEI reagent in 100 μl or 200 μl PBS. One day after transfection, cells were harvested and seeded into 96 well white plates, half area (Greiner). After an additional day the medium was changed to serum free DMEM and the cells were incubated for 2 h with inhibitor. NanoGlo assay was performed according to the manufacturer's instructions. The luminescence was measured using Tecan infinite (Tecan).
(§3) HeLa S3 (DSMZ) were authenticated by Eurofin genomics and cultured in DMEM (10% heat inactivated FBS). NCI-H358 cells were cultured in RPMI-1640 (10% heat inactivated FBS).

The subject of a further data set is NCI-H358. Briefly: Soft agar colony formation assay, MTT. The format is cell-based. As to conditions: Homo sapiens, 3 independent experiments. How it is done:
(§4) FIGS. 2a), 2b) and 2c): MTT assay for cell growth
(§5) Metabolic activity was quantified using Cell Proliferation Kit I (Roche, Basel, Switzerland). Cells were seeded in 96-well cell culture plates, using 5000 cells per well for NCI-H358 cells. After treatment, 10 μl of MTT solution was added and incubated for 2 h in CO2 incubator. Then 100 μl of solubilization buffer was added to each well and incubated overnight in CO2 incubator. Cell viability, assessed by the amount of metabolized MTT, was quantified by measuring absorbance at 570 nm.
(§6) MTT assay for the growth of different tumour cell lines with RAS mutations in soft agar with Sanguinarine chloride. Shown are data from three independent experiments. NCI-H358, H358, H2122, ASPC-1, HCT-116, T24 and HT1080 cells were used for the soft agar colony formation assay. After the treatment with Sanguinarine chloride, the colonies were stained with MTT and the value was quantified by measuring absorbance at 570 nm after solubilization. The results represent mean±SEM from 3 independent experiments.
as §3

Another data set concerns T24. Kind of data set: Soft agar colony formation assay, MTT. The format is cell-based. Particulars: Homo sapiens, T-24, 3 independent experiments. How it is done:
as §4, §5, §6

For another data set, the system named is NCI-H2122. Kind of data set: Soft agar colony formation assay, MTT. The format is cell-based. Particulars: Homo sapiens, 3 independent experiments. How it is done: as §4, §5, §6
In another data set the test system is ASPC1. Briefly: Soft agar colony formation assay, MTT. The format is cell-based. As to conditions: Homo sapiens, 3 independent experiments. On the procedure:
as §4, §5, §6

Another data set deals with HCT-116. Briefly: Soft agar colony formation assay, MTT. As to conditions: Homo sapiens; HCT-116, soft agar, 3 independent experiments. The data set is classed as cell-based. How it is done:
as §4, §5, §6

The test system of a further data set is HT1080. Briefly: Soft agar colony formation assay, MTT. The data set is classed as cell-based. As to conditions: Homo sapiens, HT-1080, 3 independent experiments. On the procedure: as §4, §5, §6
In data set [1] the test system is different RAS-isoform addicted cell-lines. Kind of data set: Soft agar colony formation assay, MTT. The data set is classed as cell-based. How it is done: as §4, §5, §6
Another data set deals with T2, HRAS G12V (Homo sapiens, UniProt P01112, G12V).
T2 construct: CRAF RBD (1-149) fused to SmBiT; transfected cells (HeLa S3 likely), NanoBiT
T2 sequence (P01112 1-186 G12V): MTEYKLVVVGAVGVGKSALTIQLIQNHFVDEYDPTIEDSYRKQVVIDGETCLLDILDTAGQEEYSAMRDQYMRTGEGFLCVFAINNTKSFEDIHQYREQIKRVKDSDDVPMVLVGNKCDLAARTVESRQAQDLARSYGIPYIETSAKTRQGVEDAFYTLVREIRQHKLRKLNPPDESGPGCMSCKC
Kind of data set: NanoBit assay for RAS activation (LgBiT-HRAS G12V / SmBiT-CRAF RBD). The format is cell-based. Particulars: 2 h with inhibitor, serum free DMEM. How it is done: as §1, §2, §3

Data set [2] deals with KRAS mutants (G12V, G12C, G12D, G12C/Y96D, G13C, G13D, G13S, Q61K and Q61R). Kind of data set: NanoBiT assay for the RAS GTP-loading in HeLa cells transfected with LgBit-KRAS mutants and SmBit-CRAF-RBD. Particulars: 2 h, serum-free DMEM. The format is cell-based. On the procedure:
NanoBiT assay for the RAS GTP-loading was performed in HeLa cells transfected with LgBit-KRAS mutants and SmBit-CRAF-RBD. Cells were treated with Sanguinarine chloride for 2 h in serum-free DMEM. After incubation, the substrate for NanoLuc was added, and the luminescence was measured in a multiplate reader. Data were normalized to cells transfected with the indicated mutant and exposed to DMSO for 2 h. DMSO-treated cells were set as 1. The bars represent mean±SEM from 3 independent experiments.
as §3

For the next data set, the system named is BaF3 KRAS G12C/Y96D. Kind of data set: MTT assay for cell viability. The data set is classed as cell-based. As to conditions: Mus musculus, 48 h, 3 independent experiments. On the procedure:
(§7) FIGS. 4a) and 4b): MTT assay for cell viability in 96 well cell culture plate Cells were treated with Sanguinarine chloride for 48 h and cell viability was evaluated by MTT assay. DMSO-treated cells were set as 1. The results shown are mean±SEM from 3 independent experiments.

The subject of the next data set is BaF3 KRAS G12C. Briefly: MTT assay for cell viability. Particulars: Mus musculus, 48 h, 3 independent experiments. The format is cell-based. On the procedure: as §7
(Formazan colour is commonly taken as a measure of viable cells.)

In a further data set the test system is KRAS dependent cells. Kind of data set: MTT assay for cell viability. The data set is classed as cell-based. Particulars: 48 h, irrespective of the presence of mutation. How it is done: as §7
Another data set relates to sNF96.2. Kind of data set: RASOpathie-Model; MTT assay for cell viability. The format is cell-based. Particulars: sNF96.2, 48 h. On the procedure: FIG. 5: RASOpathie-Model Sanguinarine chloride; MTT assay for cell viability in 96 well cell culture plate
Cells were treated with Sanguinarine chloride for 48 h and cell viability was evaluated by MTT assay. DMSO-treated cells were set as 1. The results shown are mean±SEM from 3 independent experiments.

A further data set has as its target T3, KRAS G12V (Homo sapiens, UniProt P01116, G12V).
T3 construct: CRAF RBD (1-149) fused to SmBiT; transfected cells
Briefly: NanoBit assay for RAS activation (LgBiT-KRAS G12V / SmBiT-CRAF RBD). The data set is classed as cell-based. As to conditions: 2 h with inhibitor, serum free DMEM. On the procedure: as §1, §2, §3

Data set [3] relates to Na+/K+-ATPase transmembrane protein. As to conditions: through action on the Na+/K+-ATPase; cited from earlier work.

Broadly, the pIC50 is the negative decadic logarithm of the IC50, by convention in mol/L.

pIC50: −log10 of the molar value.

T3 sequence (P01116 1-188 isoform P01116-2 G12V): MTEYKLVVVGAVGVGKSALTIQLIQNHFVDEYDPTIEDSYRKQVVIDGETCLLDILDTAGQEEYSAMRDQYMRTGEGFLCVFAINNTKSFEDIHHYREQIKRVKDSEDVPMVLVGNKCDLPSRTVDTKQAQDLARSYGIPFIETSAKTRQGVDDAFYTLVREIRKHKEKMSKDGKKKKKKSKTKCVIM
T1 sequence (P01111 1-186 G12V): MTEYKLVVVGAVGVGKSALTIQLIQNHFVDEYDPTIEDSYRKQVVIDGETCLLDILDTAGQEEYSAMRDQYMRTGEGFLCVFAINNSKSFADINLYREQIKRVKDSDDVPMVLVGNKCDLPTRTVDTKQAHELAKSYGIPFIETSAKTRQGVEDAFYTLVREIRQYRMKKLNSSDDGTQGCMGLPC

Turning to `C[n+]1cc2c3c(ccc2c2ccc4cc5c(cc4c21)OCO5)OCO3.[Cl-]` [Sanguinarine chloride, 13-Methyl-[1,3]benzodioxolo[5,6-c]-1,3-dioxolo[4,5-i]phenanthridinium chloide], at NRAS G12V, the “inhibition of N-RAS activation” value was “inhibits”. Also, the pIC50 in the data set on NCI-H358 is 5.84; with T24 it was 5.99; in the data set on NCI-H2122 it was 5.81; in the data set on ASPC1 it was 6.01; in the data set with HCT-116 it was 6.28; with HT1080, 6.06. For the same molecule, the pIC50 is 5.76 in the data set on BaF3 KRAS G12C/Y96D, 5.92 with BaF3 KRAS G12C and 5.86 in the data set on sNF96.2 (3 independent experiments). Further, in [1], the “growth of RAS-isoform addicted cell-lines” value was “blocks the growth of different RAS-isoform addicted cell-lines and stops the growth of cancer”. The “inhibition of H-RAS activation” value on HRAS G12V is given as “inhibits”. In addition, the “inhibition of different RAS-isoforms (RAS GTP-loading)” value in data set [2] is on record as “inhibits different RAS-isoforms”. The “inhibition of KRAS dependent cells” value in the data set on KRAS dependent cells was “inhibits KRAS dependent cells irrespective of the presence of mutation”. In the data set on sNF96.2 (MTT), the “inhibition of RAS protein of RASOpathie” value was “inhibits RAS protein of RASOpathie”. At KRAS G12V, the “inhibition of K-RAS activation” value is “inhibits”.
Turning to `C[n+]1cc2c3c(ccc2c2ccc4cc5c(cc4c21)OCO5)OCO3` [Sanguinarine, 13-Methyl[1,3]benzodioxolo[5,6-c]-1,3-dioxolo[4,5-J]phenanthridinium], the “toxicity to animal cells” value in data set [3] was “kills animal cells through its action on the Na+/K+-ATPase transmembrane protein”.
